Broadly, the EC50 is the concentration that produces a half-maximal response.

One experiment deals with T1, human GPR52 (Homo sapiens, UniProt Q9Y2T5).
T1 construct: expressed in transfected cells; host or cells: CHO(dhfr-) cells
T1 sequence (Q9Y2T5 whole entry): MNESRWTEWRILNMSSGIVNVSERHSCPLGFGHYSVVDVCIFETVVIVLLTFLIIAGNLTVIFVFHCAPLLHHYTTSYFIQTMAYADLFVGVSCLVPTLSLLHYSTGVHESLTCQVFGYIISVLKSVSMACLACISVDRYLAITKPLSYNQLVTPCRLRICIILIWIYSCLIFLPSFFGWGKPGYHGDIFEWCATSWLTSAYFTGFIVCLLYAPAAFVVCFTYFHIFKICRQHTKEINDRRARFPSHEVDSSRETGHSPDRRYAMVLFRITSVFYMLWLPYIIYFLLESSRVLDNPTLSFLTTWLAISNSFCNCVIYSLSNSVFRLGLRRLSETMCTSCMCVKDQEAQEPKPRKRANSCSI
The experiment can be described thus: Increase of intracellular cAMP concentration in human GPR52-expressing CHO cell (AlphaScreen cAMP assay). Type of experiment: cell-based. Conditions: CHO, 1µM test compound; 100% = cAMP with 1 µM Reference Example 79, 0% = DMSO; human GPR52-expressing CHO(dhfr-) cells, 37°C, 30 min; read-out: GPR52 agonist activity (%). As to the method:
Increase of intracellular cAMP concentration in human GPR52-expressing CHO cell
Using OptiPlate-384 (PerkinElmer Inc.), 1×10^4 human GPR52-expressing CHO(dhfr-) cells were incubated together with various concentration(10^-5µM - 10µm) of a test compound in an assay buffer (30 µL, HBSS (containing Ca^2+ and Mg^2+), 0.5% BSA, 100 µM IBMX, 100 µM Ro20-1724, 5 mM HEPES (pH 7.55)) at 37°C for 30 min. Thereafter, according to the protocol of AlphaScreen CAMP Assay Kit (PerkinElmer Inc.), the intracellular cAMP concentration was measured by EnVision (PerkinElmer Inc.). The GPR52 agonist activity was calculated, assuming the intracellular cAMP concentration in the presence of […] N-(2-hydroxyethyl)-3-[2-[3-(trifluoromethyl)benzyl]-1-benzofuran-4-yl]benzamide (Reference Example 79) to be 100% and assuming the intracellular cAMP concentration when DMSO was added instead of the test compound to be 0%.
For the compound `Cc1nc(-c2cccc3cc(Cc4cccc(C(F)(F)F)c4)sc23)oc1C(=O)NCC(N)=O` [Example 11, N-(2-amino-2-oxoethyl)-4-methyl-2-[2-[3-(trifluoromethyl)benzyl]-1-benzothiophen-7-yl]-1,3-oxazole-5-carboxamide], the activity at 1 µM was 70%.
The same measure, in the same setting: the value for `Cc1cn(-c2cccc3cc(Cc4cccc(C(F)(F)F)c4)sc23)cc1C(=O)NCC(N)=O` [Example 12, N-(2-amino-2-oxoethyl)-4-methyl-1-[2-[3-(trifluoromethyl)benzyl]-1-benzothiophen-7-yl]-1H-pyrrole-3-carboxamide] was 107%; that for `COCCNC(=O)c1cnn(-c2cccc3cc(Cc4cccc(C(F)(F)F)c4)sc23)c1C` [Example 13, N-(2-methoxyethyl)-5-methyl-1-[2-[3-(trifluoromethyl)benzyl]-1-benzothiophen-7-yl]-1H-pyrazole-4-carboxamide] was 79%.
Same read-out and setting: the figure for `Cc1nn(-c2cccc3cc(Cc4cccc(C(F)(F)F)c4)sc23)cc1C(=O)NCC(N)=O` [Example 16, N-(2-amino-2-oxoethyl)-3-methyl-1-[2-[3-(trifluoromethyl)benzyl]-1-benzothiophen-7-yl]-1H-pyrazole-4-carboxamide] is 94%; for `O=C(NCCO)c1cn(-c2cccc3cc(Cc4cccc(C(F)(F)F)c4)sc23)nc1C(F)(F)F` [Example 20, N-(2-hydroxyethyl)-3-(trifluoromethyl)-1-[2-[3-(trifluoromethyl)benzyl]-1-benzothiophen-7-yl]-1H-pyrazole-4-carboxamide] it is 79%.
On the same count and under the same terms, the value for `NC(=O)CNC(=O)c1cn(-c2cccc3cc(Cc4cccc(C(F)(F)F)c4)sc23)nc1C(F)(F)F` [Example 21, N-(2-amino-2-oxoethyl)-3-(trifluoromethyl)-1-[2-[3-(trifluoromethyl)benzyl]-1-benzothiophen-7-yl]-1H-pyrazole-4-carboxamide] was 94%; that for `NC(=O)c1cn(-c2cccc3cc(Cc4cccc(C(F)(F)F)c4)sc23)nc1C(F)(F)F` [Example 22, 3-(trifluoromethyl)-1-[2-[3-(trifluoromethyl)benzyl]benzothiophen-7-yl]-1H-pyrazole-4-carboxamide] was 93%; that for `CC(C)c1nn(-c2cccc3cc(Cc4cccc(C(F)(F)F)c4)sc23)cc1C(=O)NCCO` [Example 26, N-(2-hydroxyethyl)-3-(1-methylethyl)-1-[2-[3-(trifluoromethyl)benzyl]-1-benzothiophen-7-yl]-1H-pyrazole-4-carboxamide] was 96%.
Consider `NC(=O)CNC(=O)c1cn(-c2cccc3cc(Cc4cccc(C(F)(F)F)c4)sc23)nc1C1CC1` [Example 28, N-(2-amino-2-oxoethyl)-3-cyclopropyl-1-[2-[3-(trifluoromethyl)benzyl]-1-benzothiophen-7-yl]-1H-pyrazole-4-carboxamide], for which the activity at 1 µM amounted to 95%.
Consider `O=C(NCCO)c1cn(-c2cccc3cc(Cc4cccc(C(F)(F)F)c4)sc23)nc1C1CC1` [Example 29, 3-cyclopropyl-N-(2-hydroxyethyl)-1-[2-[3-(trifluoromethyl)benzyl]-1-benzothiophen-7-yl]-1H-pyrazole-4-carboxamide], for which the activity at 1 µM is 97%.
As to `Cc1cn(-c2cccc3cc(Cc4cccc(C(F)(F)F)c4)sc23)nc1C(=O)NCC(N)=O` [Example 30, N-(2-amino-2-oxoethyl)-4-methyl-1-[2-[3-(trifluoromethyl)benzyl]-1-benzothiophen-7-yl]-1H-pyrazole-3-carboxamide], the activity at 1 µM was 96%.
On the same count and under the same terms, the figure for `Cc1cc(C(=O)NCC(N)=O)n(-c2cccc3cc(Cc4cccc(C(F)(F)F)c4)sc23)n1` [Example 31, N-(2-amino-2-oxoethyl)-3-methyl-1-[2-[3-(trifluoromethyl)benzyl]-1-benzothiophen-7-yl]-1H-pyrazole-5-carboxamide] is 84%; for `Cc1cc(C(=O)NCCO)n(-c2cccc3cc(Cc4cccc(C(F)(F)F)c4)sc23)n1` [Example 33, N-(2-hydroxyethyl)-3-methyl-1-[2-[3-(trifluoromethyl)benzyl]-1-benzothiophen-7-yl]-1H-pyrazole-5-carboxamide] it is 79%; for `Cc1nc(-c2cccc3cc(Cc4cccc(C(F)(F)F)c4)sc23)sc1C(N)=O` [Example 36, 4-methyl-2-[2-[3-(trifluoromethyl)benzyl]-1-benzothiophen-7-yl]-1,3-thiazole-5-carboxamide] it is 96%.
The same measure, in the same setting: the value for `Cc1nc(-c2cccc3cc(Cc4cccc(C(F)(F)F)c4)sc23)sc1C(=O)NCC(N)=O` [Example 37, N-(2-amino-2-oxoethyl)-4-methyl-2-[2-[3-(trifluoromethyl)benzyl]-1-benzothiophen-7-yl]-1,3-thiazole-5-carboxamide] was 97%; that for `Cc1nc(-c2cccc3cc(Cc4cccc(C(F)(F)F)c4)sc23)sc1C(=O)NCCC#N` [Example 38, N-(2-cyanoethyl)-4-methyl-2-[2-[3-(trifluoromethyl)benzyl]-1-benzothiophen-7-yl]-1,3-thiazole-5-carboxamide] was 101%; that for `Cc1nc(-c2cccc3cc(Cc4cccc(C(F)(F)F)c4)sc23)sc1C(=O)NCCO` [Example 39, N-(2-hydroxyethyl)-4-methyl-2-[2-[3-(trifluoromethyl)benzyl]-1-benzothiophen-7-yl]-1,3-thiazole-5-carboxamide] was 93%.
Regarding `COCCNC(=O)c1sc(-c2cccc3cc(Cc4cccc(C(F)(F)F)c4)sc23)nc1C` [Example 40, N-(2-methoxyethyl)-4-methyl-2-[2-[3-(trifluoromethyl)benzyl]-1-benzothiophen-7-yl]-1,3-thiazole-5-carboxamide], the activity at 1 µM was 90%.
The same measure, in the same setting: the value for `Cc1nc(-c2cccc3oc(Cc4cccc(C(F)(F)F)c4)cc23)sc1C(N)=O` [Example 44, 4-methyl-2-[2-[3-(trifluoromethyl)benzyl]-1-benzofuran-4-yl]-1,3-thiazole-5-carboxamide] was 92%; that for `Cc1nc(-c2cccc3oc(Cc4cccc(C(F)(F)F)c4)cc23)sc1C(=O)NCCO` [Example 46, N-(2-hydroxyethyl)-4-methyl-2-[2-[3-(trifluoromethyl)benzyl]-1-benzofuran-4-yl]-1,3-thiazole-5-carboxamide] was 90%.
The same measure, in the same setting: the figure for `Cc1nc(-c2cccc3cc(Cc4cccc(C(F)(F)F)c4)sc23)n(C)c1C(=O)NCC(N)=O` [Example 47, N-(2-amino-2-oxoethyl)-1,4-dimethyl-2-[2-[3-(trifluoromethyl)benzyl]-1-benzothiophen-7-yl]-1H-imidazole-5-carboxamide] is 93%; for `Cc1nc(-c2cccc3cc(Cc4cccc(C(F)(F)F)c4)sc23)n(C)c1C(N)=O` [Example 48, 1,4-dimethyl-2-[2-[3-(trifluoromethyl)benzyl]-1-benzothiophen-7-yl]-1H-imidazole-5-carboxamide] it is 89%; for `Cc1c(C(N)=O)nc(-c2cccc3cc(Cc4cccc(C(F)(F)F)c4)sc23)n1C` [Example 50, 1,5-dimethyl-2-[2-[3-(trifluoromethyl)benzyl]-1-benzothiophen-7-yl]-1H-imidazole-4-carboxamide] it is 79%.
The same measure, in the same setting: the figure for `COCCNC(=O)c1c(C)nn(-c2cccc3cc(Cc4cccc(C(F)(F)F)c4)sc23)c1C` [Example 51, N-(2-methoxyethyl)-3,5-dimethyl-1-[2-[3-(trifluoromethyl)benzyl]-1-benzothiophen-7-yl]-1H-pyrazole-4-carboxamide] is 102%; for `Cc1nn(-c2cccc3cc(Cc4cccc(C(F)(F)F)c4)sc23)c(C)c1C(=O)NCCO` [Example 52, N-(2-hydroxyethyl)-3,5-dimethyl-1-[2-[3-(trifluoromethyl)benzyl]-1-benzothiophen-7-yl]-1H-pyrazole-4-carboxamide] it is 107%; for `Cc1nn(-c2cccc3cc(Cc4cccc(C(F)(F)F)c4)sc23)c(C)c1C(=O)NCC(N)=O` [Example 53, N-(2-amino-2-oxoethyl)-3,5-dimethyl-1-[2-[3-(trifluoromethyl)benzyl]-1-benzothiophen-7-yl]-1H-pyrazole-4-carboxamide] it is 102%.
As for `Cc1nn(-c2cccc3cc(Cc4cccc(C(F)(F)F)c4)sc23)c(C)c1C(N)=O` [Example 54, 3,5-dimethyl-1-[2-[3-(trifluoromethyl)benzyl]-1-benzothiophen-7-yl]-1H-pyrazole-4-carboxamide], the activity at 1 µM was determined as 101%.
Same read-out and setting: the value for `Cc1nn(-c2cccc3cc(Cc4cc(F)cc(Cl)c4)sc23)c(C)c1C(=O)NCC(N)=O` [Example 55, N-(2-amino-2-oxoethyl)-1-[2-(3-chloro-5-fluorobenzyl)-1-benzothiophen-7-yl]-3,5-dimethyl-1H-pyrazole-4-carboxamide] was 96%.

The same experiment, now with this note: concentration of the test compound at which it shows 50% activity; human GPR52-expressing CHO(dhfr-) cells; read-out: GPR52 agonist activity EC50.
For `Cc1nc(-c2cccc3cc(Cc4cccc(C(F)(F)F)c4)sc23)oc1C(=O)NCC(N)=O` [Example 11, N-(2-amino-2-oxoethyl)-4-methyl-2-[2-[3-(trifluoromethyl)benzyl]-1-benzothiophen-7-yl]-1,3-oxazole-5-carboxamide], the EC50 was found to be 290 nM.
Regarding `Cc1nc(-c2cccc3nn(Cc4cccc(C(F)(F)F)c4)cc23)sc1C(N)=O` [Example 41, 4-methyl-2-[2-[3-(trifluoromethyl)benzyl]-2H-indazol-4-yl]-1,3-thiazole-5-carboxamide], the EC50 was found to be 49 nM.

The record behind these values is patent publication EP2518054A1, “AMIDE COMPOUND” (Takeda Pharmaceutical Company Limited, priority 2009, dated 2011).
